Measurements from patent US20020115688A1, “Screen for glutamate reuptake inhibitors, stimulators, and modulators” (priority 2000, published 2002).
Where two headings read alike, the source gives them in different places.

How the values were obtained:
[1] = tested on: glutamate transporters (GLAST and GLT1); assay: [3H]-4MG binding to rat brain membrane homogenates; details: FIG. 5
Description: (§1) Rat brain tissue, either freshly dissected or stored frozed at −20° C. is homogenized in HEPES buffer containing Na^+(5 mM HEPES, 96 mM NaCl, 1.8 mM CaCl2, 1 mM MgCl2 (pH 7.5 at 25° C.)), and membranes are washed twice in the same buffer using standard methods for subcellular fractionation and the preparation of brain membranes. Brain tissue is weighed and homogenized in 15 ml of assay buffer using a Polytron tissue homogenizer (setting 4, 10-15 seconds). […] The homogenate is centrifuged again (as above) and the pellet re-suspended in 20 to 25 volumes of buffer. Membrane homogenates make up 20% of final assay volume. Binding assays are also performed in the above buffer.
(§2) The range of concentrations of the receptor compound (for example, 10 nM-1 mM) is varied dependent on whether all or only a trace of the receptor compound is labeled. Following incubation of the receptor compounds (bound to the transporters) in the presence or absence of test compounds, binding is terminated by rapid filtration through Whatman GF/B filter discs and washing 3 times with buffer using a Brandel cell harvester. Binding is determined by any technique suitable for the label used. For isotope labels, scintillation spectrometry is preferred.
(§3) Forebrain tissue from female Sprague Dawley rats was homogenised in HEPES buffer containing Na^+, and membranes were washed twice in the same buffer. Binding experiments were also performed in this buffer. […] Binding was determined by scintillation spectrometry. A full range of association, dissociation, saturation and inhibition studies was performed over varying incubation times (up to 60 min). Data were analyzed using computer-assisted curve fitting. Values are expressed as mean of at least triplicate determinations and multiple experiments.
(§4) A full range of association, dissociation, saturation and inhibition studies was performed over varying incubation times (up to 60 min). Data were analyzed using computer-assisted curve fitting. Values cited are expressed as mean of at least triplicate determinations and multiple experiments.

[2] = molecular target: T1, glutamate transporters (GLAST and GLT1); assay: [3H]-4MG binding to rat brain membrane homogenates; details: for IC50: read-out: IC50 for displacement of [3H]-4MG binding; for displacement of 4MG binding: at or above 100 μM, FIG. 5
T1 construct: Bmax; other: rat brain membrane homogenates; other: 20 nM [3H]-4MG, 15 minutes at 4° C; KD; association t½
Description: as §1, §2, §3, §4

GLAST = molecular target: T2, GLAST (Rattus norvegicus, UniProt P24942); details: at concentrations below 1 mM; cited from earlier work
T2 sequence (P24942 1-543): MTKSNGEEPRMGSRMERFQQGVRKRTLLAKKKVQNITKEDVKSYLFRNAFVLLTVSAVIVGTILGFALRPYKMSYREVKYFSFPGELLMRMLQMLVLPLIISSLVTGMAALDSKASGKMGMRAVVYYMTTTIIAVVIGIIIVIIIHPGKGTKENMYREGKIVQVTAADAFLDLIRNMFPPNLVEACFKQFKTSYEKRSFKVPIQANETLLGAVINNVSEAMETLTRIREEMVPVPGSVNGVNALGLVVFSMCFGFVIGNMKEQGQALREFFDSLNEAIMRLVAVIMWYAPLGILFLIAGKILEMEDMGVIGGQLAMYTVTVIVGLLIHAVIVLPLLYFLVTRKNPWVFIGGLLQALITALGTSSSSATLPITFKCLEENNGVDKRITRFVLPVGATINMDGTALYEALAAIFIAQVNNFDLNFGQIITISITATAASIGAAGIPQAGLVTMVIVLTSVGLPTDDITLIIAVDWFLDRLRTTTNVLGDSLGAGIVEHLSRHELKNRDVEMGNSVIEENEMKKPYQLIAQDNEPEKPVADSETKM

[3] = Hydrolysis of prodrug to the acid form; assay type: in vitro ADME; details: prodrug ester cleavage
Text: The ester, carbonate, and amine bond in any prodrug forms of compounds identified by the disclosed method can be readily cleaved in vivo. Therefore, prodrug compositions can be hydrolyzed to the corresponding acids form in plasma.

[4] = 20 nM [3H]-4MG, 15 minutes at 4° C., FIG. 3, FIG. 4

NCCCC(=O)O [GABA, γ-aminobutyric acid]
effect on 4MG and/or D-aspartate binding to GluTs [1]: failed to affect

N[C@@H](CC(=O)O)C(=O)O [L-aspartate]
IC50 [2, 4]: 7.5 µM

N[C@@H](Cn1cc(F)c(=O)[nH]c1=O)C(=O)O [FW, fluorowillardiine]
displacement of 4MG binding [2]: failed to significantly displace

CC(C)(C)c1o[nH]c(=O)c1CC(N)C(=O)O (stereo not shown) [ATPA]
effect on 4MG and/or D-aspartate binding to GluTs [1]: failed to affect

CC(C)[C@H]1CN[C@H](C(=O)O)[C@H]1CC(=O)O [DHK, L-Dihydrokainate]
binding to GLAST (GLAST): do not bind

CC(CC(=O)O)C(N)C(=O)O (racemic) [3MG, (±)-threo-3-methylglutamate]
binding to GLAST (GLAST): do not bind

C=C(C)[C@H]1CN[C@H](C(=O)O)[C@H]1CC(=O)O [KA, kainate]
binding to GLAST (GLAST): do not bind

Cc1onc(O)c1CC(N)C(=O)O (stereo not drawn) [AMPA, α-amino-3-hydroxy-5-methyl-4-isoxazolepropionate]
displacement of 4MG binding [2]: failed to significantly displace

NCC(=O)O [GLY, glycine]
effect on 4MG and/or D-aspartate binding to GluTs [1]: failed to affect

O=C(O)[C@H]1CN[C@H](C(=O)O)C1 [PDC, L-trans-pyrrolidine-2,4-dicarboxylate]
IC50 [2, 4]: 2.9 µM

N[C@H](C(=O)O)[C@H]1C[C@H]1C(=O)O [CCG-III, (2S,3S,4R)-2-(carboxycyclopropyl)glycine]
IC50 [2, 4]: 1.2 µM

CN[C@H](CC(=O)O)C(=O)O [NMDA, N-methyl-D-aspartate]
displacement of 4MG binding [2]: failed to significantly displace

N[C@@H](Cn1cc(I)c(=O)[nH]c1=O)C(=O)O [IW, iodowillardine]
effect on 4MG and/or D-aspartate binding to GluTs [1]: failed to affect

C[C@H](C[C@H](N)C(=O)O)C(=O)O [4MG, (2S,4R)-4-methyl glutamic acid]
Kd ([2]; rat brain membrane homogenates, FIG. 1): 5.4 µM

N[C@@H](COS(=O)(=O)O)C(=O)O [SOS, L-serine-O-sulphate]
IC50 [2]: 40 µM

COC(=O)[C@H](C)C[C@H](N)C(=O)OC [compound 2, (2S,4R)-4-methyl glutamic acid dimethyl ester]
hydrolysis to (2S,4R)-4-methyl glutamic acid (1) [3]: readily hydrolyzed
